Assay results taken from article PMC2788660 (Journal of medicinal chemistry, 2009).
Square brackets hold non-standard residues; d marks the D form. Peptide text beside a SMILES is read from it. * marks the point of attachment. 1Nal = N[C@@H](Cc1cccc2ccccc12)C(=O)O; Asu = N[C@@H](CCCCCC(=O)O)C(=O)O; β3hL = CC(C)C[C@H](N)CC(=O)O; CH2CH2COOH = O=C(O)CC*

Columns and labels:
HDAC1 = HDAC1 (Homo sapiens, UniProt Q13547); details: relative to 3a
HDAC8 = biological target: T1, HDAC8 (Homo sapiens, UniProt Q9BY41); details: relative to 3a
T1 sequence (Q9BY41 1-377): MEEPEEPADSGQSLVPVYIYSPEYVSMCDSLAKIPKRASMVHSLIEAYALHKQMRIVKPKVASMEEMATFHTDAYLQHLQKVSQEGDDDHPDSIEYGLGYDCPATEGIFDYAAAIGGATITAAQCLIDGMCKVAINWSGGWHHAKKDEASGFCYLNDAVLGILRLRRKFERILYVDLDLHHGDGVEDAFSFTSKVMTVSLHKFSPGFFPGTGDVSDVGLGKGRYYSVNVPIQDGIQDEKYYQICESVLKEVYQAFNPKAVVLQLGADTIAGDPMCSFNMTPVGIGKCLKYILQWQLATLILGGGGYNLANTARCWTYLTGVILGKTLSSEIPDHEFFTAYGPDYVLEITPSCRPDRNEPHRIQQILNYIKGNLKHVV

HDAC6 = biological target: T2, HDAC6 (Homo sapiens, UniProt Q9UBN7)
T2 sequence (Q9UBN7 1-1215): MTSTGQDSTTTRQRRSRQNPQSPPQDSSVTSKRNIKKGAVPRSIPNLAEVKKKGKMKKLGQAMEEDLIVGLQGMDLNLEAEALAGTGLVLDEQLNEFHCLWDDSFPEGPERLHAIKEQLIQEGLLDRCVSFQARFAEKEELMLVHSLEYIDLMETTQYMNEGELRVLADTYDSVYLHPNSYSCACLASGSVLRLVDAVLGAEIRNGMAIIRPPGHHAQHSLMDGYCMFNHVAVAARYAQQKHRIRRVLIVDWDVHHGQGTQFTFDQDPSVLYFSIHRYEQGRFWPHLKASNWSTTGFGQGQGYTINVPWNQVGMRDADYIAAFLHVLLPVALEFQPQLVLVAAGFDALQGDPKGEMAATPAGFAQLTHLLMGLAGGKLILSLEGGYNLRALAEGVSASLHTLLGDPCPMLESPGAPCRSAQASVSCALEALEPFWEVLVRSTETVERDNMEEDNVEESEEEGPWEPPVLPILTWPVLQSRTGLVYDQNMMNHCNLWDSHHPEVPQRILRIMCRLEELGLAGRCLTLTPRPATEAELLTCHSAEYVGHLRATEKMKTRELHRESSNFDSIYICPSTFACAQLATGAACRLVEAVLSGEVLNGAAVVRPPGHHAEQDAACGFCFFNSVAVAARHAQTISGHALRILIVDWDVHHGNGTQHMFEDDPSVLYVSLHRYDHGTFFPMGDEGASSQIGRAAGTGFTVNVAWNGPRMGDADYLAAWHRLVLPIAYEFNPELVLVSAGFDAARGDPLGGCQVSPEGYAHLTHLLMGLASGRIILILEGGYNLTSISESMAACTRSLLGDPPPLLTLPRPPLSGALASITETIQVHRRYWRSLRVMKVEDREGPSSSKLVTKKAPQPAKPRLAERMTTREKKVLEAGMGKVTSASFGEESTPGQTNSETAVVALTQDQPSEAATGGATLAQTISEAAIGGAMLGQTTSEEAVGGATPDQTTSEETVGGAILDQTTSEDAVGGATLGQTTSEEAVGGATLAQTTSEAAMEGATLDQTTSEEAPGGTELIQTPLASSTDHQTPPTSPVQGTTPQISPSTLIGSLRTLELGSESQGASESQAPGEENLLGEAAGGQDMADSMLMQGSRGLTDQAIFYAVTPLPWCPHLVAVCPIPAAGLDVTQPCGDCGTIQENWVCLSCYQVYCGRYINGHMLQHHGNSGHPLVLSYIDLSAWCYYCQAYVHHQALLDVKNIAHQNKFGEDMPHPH

Sequence of HDAC1 (Q13547 whole entry): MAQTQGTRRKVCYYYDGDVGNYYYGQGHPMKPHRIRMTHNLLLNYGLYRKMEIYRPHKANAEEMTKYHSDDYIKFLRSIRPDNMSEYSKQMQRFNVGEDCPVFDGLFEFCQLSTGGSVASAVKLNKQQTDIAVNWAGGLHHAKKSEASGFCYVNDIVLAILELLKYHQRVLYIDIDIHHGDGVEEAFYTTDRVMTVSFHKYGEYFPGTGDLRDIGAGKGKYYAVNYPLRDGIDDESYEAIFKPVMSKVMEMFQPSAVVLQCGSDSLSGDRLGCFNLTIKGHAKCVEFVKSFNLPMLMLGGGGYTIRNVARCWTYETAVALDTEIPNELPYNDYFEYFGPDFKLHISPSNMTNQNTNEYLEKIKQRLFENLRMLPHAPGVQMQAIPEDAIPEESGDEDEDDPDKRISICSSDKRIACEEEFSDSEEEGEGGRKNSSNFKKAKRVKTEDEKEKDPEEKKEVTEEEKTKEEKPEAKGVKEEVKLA

Question: Which “decrease in potency against HDAC1, 3a vs. 4c” value (HDAC1) does the source give for `CC(C)C[C@H]1CC(=O)N[C@@H](C)C(=O)N[C@@H](CSCCC(=O)O)C(=O)N[C@@H](Cc2c[nH]c3ccccc23)C(=O)N1` [4c] (cyclo(C(CH2CH2COOH)W[β3hL]A); ring closure inferred) here?
Answer: Its value is ~ 40 fold.

Question: What about the “decrease in potency against HDAC8, 3a vs. 4c” value (HDAC8) of the same compound?
Answer: The value was ~ 3 fold.

Question: With `CCC(=O)CCCCC[C@@H]1NC(=O)[C@H]2CCCCN2C(=O)[C@H]([C@@H](C)CC)NC(=O)[C@H](Cc2cn(OC)c3ccccc23)NC1=O` [1a, apicidin, reference compound] as the compound, how does the “HDAC6 inhibition (in words)” value (HDAC6) read?
Answer: The value was “did not inhibit HDAC6 in the concentration range tested”.

Question: How did the “fold more potent against HDAC6 compared to Ala–aa4 analog (8b)” value (HDAC6) turn out when `CC(C)C[C@H]1CC(=O)N[C@@H](CCCNC(=N)N)C(=O)N[C@@H](CCCCCC(=O)O)C(=O)N[C@@H](Cc2cccc3ccccc23)C(=O)N1` [compound 17, c[Asu-Nal-β^3Leu-Arg]] (cyclo([Asu][1Nal][β3hL]R); ring closure inferred) was run?
Answer: The value was 3–4 fold.
